Data reported in patent publication US9598463B2, “Mucin hypersecretion inhibitors and methods of use” (BIOMARCK PHARMACEUTICALS, LTD., priority 2005, dated 2017).

Tested on: ATP-induced mucin hypersecretion
Test: Aerosolized Ac-peptide 106 on ATP-induced mucin hypersecretion in mouse model with goblet cell metaplasia
Format: in vivo, BALB/c mice
Conditions: aerosol
Experimental: The efficacy of aerosolized Ac-peptide 106 on mucin hypersecretion in a mouse model of asthma was determined at two concentrations. Briefly, 5- to 8 week old BALB/c mice were immunized weekly as described above in Example 1A for 3 weeks with ovalbumin. On Day 28 the mice were challenged with aerosolized 2.5% ovalbumin in normal saline for 30 minutes. Three days after ovalbumin challenge, each group of mice (n=2) was administered an aerosolized isotonic solution of Ac-peptide 106 at […] or 30 mM for 1 hour with an AeroMist CA-209 nebulizer. The mass median aerodynamic diameter of the aerosol particles was 1.49 um (range 0.4 to 4.7 urn). Given these concentrations of Ac-peptide 106 and this particle size, the calculated pulmonary deposition of Ac-peptide 106 was 0.38 mg/kg body weight and 1.1 mg/kg body weight, respectively.
Ac-peptide 106 administration was immediately followed by aerosol administration of the secretagogue adenosine triphosphate (ATP) ([…] in saline) for 5 minutes. The mice were sacrificed, and the lungs were harvested within 20 minutes. The lungs were rinsed with saline, fixed with paraformaldehyde, embedded in paraffin, and sectioned. The sections were quantitatively analyzed for the presence of mucin by quantitative immunohistochemistry according to the method of Evans et al. (Am. J. Respir. Cell Mol. Biol. Vol. 31, pp 382-394, 2004).

Substance: Ac-GAQFSKTAAK-OH [Ac-peptide 106]
- Inhibition of ATP-induced mucin hypersecretion (calculated pulmonary deposition 0.38 mg/kg body weight): 30%
- Inhibition of ATP-induced mucin hypersecretion (calculated pulmonary deposition 1.1 mg/kg body weight): 67%
